Patent US10323012B2 (priority 2012, dated 2019)
Where two headings read alike, the source gives them in different places.

Legend:
[1] = system: HIV/HA virions (H5N1 HA and NA); assay: microbe, parasite or virus in culture; settings: Human immunodeficiency virus 1, H5N1, A549, in Homo sapiens, 48 h, read-out: Anti-H5N1 Activity (EC50)
[2] = system: HIV/HA virions (H5N1 HA and NA); assay: in vitro; settings: human, Selective Index (CC50/IC50), anti-H5N1
[3] = system: HIV/HA virions (H5N1 HA and NA); settings: human
HIV/VSV-G virions [4] = assay: microbe, parasite or virus in culture; settings: Human immunodeficiency virus 1, A549, in Homo sapiens, 48 h, read-out: Anti-HIV Activity (EC50)
HIV/VSV-G virions [5] = assay: in vitro; settings: human
HIV/VSV-G virions [6] = settings: read-out: Anti-HIV Activity (EC50)
[7] = Toxicity of 4α-(N-phenyl)miliusate in mice; assay type: in vivo, BALB/c nude mice
From the text: All animal studies are approved and performed according to Animal Care and Use Guidelines of the Animal Ethics Committee at Hong Kong Baptist University and performed following Animal Care and Use guidelines set by NIH (National Institute of Health, USA). BALB/c nude mice, SPF class, male or female, 7-8 weeks old (average body weight 22 g), are purchased from Charles River Laboratories. Before the experiment, the mice are kept for one week of acclimatization to SPF class laboratory conditions. […] Every other day injections at i.p. sites are scheduled for 21 days. Weights of mice are measured twice a week until the end of the experiment.

[8] = 20 and 40 mg/kg i.p., every other day for 21 days, 10 mice/group

## CO[C@@H]1CC(=O)C2(CC(=O)O[C@@H]2/C=C(\C)CCC=C(C)C)C[C@@H]1O (some centres unmarked) [Miliusane I]
[1]
  EC50: 0.71 µM
[2]
  selectivity ratio: 9.5
[3]
  Selective Index (CC50/IC50), anti-H5N1: 10

## CC(=O)O[C@@H]1CCC(=O)C2(CC(=O)O[C@@H]2/C=C(\C)CCC=C(C)C)C1 (some centres unmarked) [3,4-Dihydro-miliusate]
HIV/VSV-G virions [4]
  EC50: 67 µM
HIV/VSV-G virions [5]
  selectivity ratio: 1

## 4α-(N-Phenyl)miliusate
HIV/VSV-G virions [6]
  EC50: 2.7 µM
[7]; [8]
  Health of mice: all mice remained healthy
  Weight loss of mice: no weight loss
[7]; doses of 40 mg/kg
  Toxicity in mice: no toxicity

## 10′-Hydroxy-8′-oxo-miliusate
HIV/VSV-G virions [6]
  EC50: 4.97 µM

## 8′,10′-Dihydroxy-miliusate
HIV/VSV-G virions [6]
  EC50: 14.4 µM
